What was measured:
CcOMT1 [1] = tested on: T1, CcOMT1; assay: HPLC of methylated product, Michaelis-Menten non-linear fit; assay type: biochemical, Citrus reticulata; conditions: 5 mM SAM, pH 6.0 phosphate, 50 °C, 2 h, 1 mM DTT
T1 construct: full-length cDNA from CRC leaf cDNA library, BamHI/XhoI in pET-28a(+), E. coli BL21(DE3), Ni-NTA purified; ORF printed 1080 bp but 366 aa printed (inconsistent); primers encode N-terminus MGSTSSE, C-terminus MEFLKSA
From the text: HPLC of methylated product, Michaelis-Menten non-linear fit on CcOMT1 | For kinetic studies of CcOMT1 and its variant CcOMT1-W141Y toward natsudaidain

CcOMT1 [2] = tested on: T1, CcOMT1; assay: as above; assay type: biochemical, Citrus reticulata; conditions: 5 mM SAM, pH 6.0 phosphate, 50 °C, 2 h, 1 mM DTT; remark: listed apart in the source
Description: HPLC of methylated product, Michaelis-Menten non-linear fit on CcOMT1 | To determine the kinetic parameters of CcOMT1, the Michaelis–Menten constant (Km) was determined

Km (CcOMT1 [1]): 20.8 ± 7.6 µM
Km (CcOMT1 [2]): 25.4 ± 11.3 µM
SMILES: COc1ccc(-c2oc3c(OC)c(OC)c(OC)c(OC)c3c(=O)c2O)cc1OC [compound 1, natsudaidain]

Reference: publication PMC11088696, “An integrated multi-omics approach reveals polymethoxylated flavonoid biosynthesis in Citrus reticulata cv. Chachiensis” (Nature Communications, 2024)
